ChEMBL document CHEMBL4602687, “Dual Binding to Orthosteric and Allosteric Sites Enhances the Anticancer Activity of a TRAP1-Targeting Drug” (J Med Chem, 2020)
Where a chain is given by its changes, count along the chain named. Calls of active or inactive are those of the source. The rule behind the calls is not given here.

How the values were obtained:
Homo sapiens = species on record: Homo sapiens; test: Inhibition of recombinant full-length human TRAP1 W383/W4F mutant expressed in Escherichia coli BL21 (DE3) assessed as intrinsic fluorescence quenching of tryptophan residues at 10 uM measured after 1 hr by fluorescence spectrophotometric method
[1] = biological target: T1, Heat shock protein 75 kDa, mitochondrial (Homo sapiens) (UniProt Q12931); test: Inhibition of TRAP1 in human PC3 cells assessed as reduction in ATP concentration at 10 uM measured after 2 hrs; assay type: cell-based; conditions: PC-3
T1 sequence (whole entry): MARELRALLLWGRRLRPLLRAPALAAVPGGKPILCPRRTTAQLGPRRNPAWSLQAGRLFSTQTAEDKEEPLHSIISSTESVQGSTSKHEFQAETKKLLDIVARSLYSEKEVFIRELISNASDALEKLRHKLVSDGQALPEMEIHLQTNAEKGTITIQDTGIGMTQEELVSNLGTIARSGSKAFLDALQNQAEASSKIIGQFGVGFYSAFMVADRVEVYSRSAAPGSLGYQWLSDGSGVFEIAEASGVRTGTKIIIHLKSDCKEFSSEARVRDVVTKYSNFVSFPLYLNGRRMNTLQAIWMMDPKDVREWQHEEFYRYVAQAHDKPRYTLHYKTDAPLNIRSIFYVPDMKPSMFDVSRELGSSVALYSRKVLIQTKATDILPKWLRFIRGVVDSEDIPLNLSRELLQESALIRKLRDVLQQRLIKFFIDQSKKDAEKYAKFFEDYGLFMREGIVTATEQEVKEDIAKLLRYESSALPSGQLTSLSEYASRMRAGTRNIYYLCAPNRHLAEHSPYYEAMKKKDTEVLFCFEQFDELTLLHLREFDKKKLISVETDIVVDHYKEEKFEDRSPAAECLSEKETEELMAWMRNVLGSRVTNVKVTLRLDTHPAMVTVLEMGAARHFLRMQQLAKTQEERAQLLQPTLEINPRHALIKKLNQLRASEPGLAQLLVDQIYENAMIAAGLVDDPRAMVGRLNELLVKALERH

Mus musculus [2] = test: In vivo inhibition of TRAP1 in nude mouse xenografted with human NCI-H460 cells assessed as increase in SIRT3 degradation at 5 mg/kg, ip administered daily by Western blot analysis; assay type: functional, organism-based
Mus musculus [3] = test: In vivo inhibition of TRAP1 in nude mouse xenografted with human NCI-H460 cells assessed as increase in CHOP expression at 5 mg/kg, ip administered daily by Western blot analysis; assay type: functional, organism-based
[4] = biological target: T1, Heat shock protein 75 kDa, mitochondrial (Homo sapiens); test: Binding affinity to recombinant wild-type human TRAP1 ATP site expressed in Escherichia coli BL21 (DE3) assessed as induction of conformational change by measuring closed state population of TRAP1 at 10 uM preincubated for 30 mins followed by ATP addition and measured after 30 mins by TEM analysis (reference value: 52.1 +/- 0.6 %)
HeLa = test: Cytotoxicity against human HeLa cells assessed as reduction in cell viability up to 3 uM measured after 24 hrs by MTT assay; assay type: functional, cell-based
[5] = tested on: T2, Heat shock protein 75 kDa, mitochondrial (Homo sapiens), Q12931 [E403K]; test: Inhibition of recombinant wild-type human TRAP1 E403K mutant ATPase activity expressed in Escherichia coli BL21 (DE3) up to 20 uM preincubated for 0.5 hrs followed by ATP addition and measured after 3 hrs by PiColorLock Gold reagent based colorimetric assay
T2 sequence (whole entry): T1 sequence (whole entry) with E403K

- inhibition (Homo sapiens): Active
- inhibition [1]: Active
- Activity [4]: 94.2%
- inhibition [5]: Active
SMILES: Nc1ncnc2c1nc(Sc1cc3c(cc1I)OCO3)n2CCCCCCCCCC[P+](c1ccccc1)(c1ccccc1)c1ccccc1
- inhibition (Mus musculus [2]): Active
- inhibition (Mus musculus [3]): Active
- Activity (HeLa): Active
